According to patent US11352363B1, “Spiropyrrolidine derived antiviral agents” (Enanta Pharmaceuticals, Inc., priority 2020, dated 2022):
Where two headings read alike, the source gives them in different places.

Target: SARS-CoV-2 3CL-protease (Severe acute respiratory syndrome coronavirus 2 (2019-nCoV) (SARS-CoV-2), UniProt P0DTD1)
Assay: SARS-CoV-2 3C-like (3CL) protease fluorescence assay (FRET)
Format: biochemical

CC(C)C[C@H](NC(=O)OCc1ccccc1)C(=O)N1C[C@]2(C[C@H]1C#N)C(=O)Nc1ccccc12 [Compound 1]
IC50 (read-out: FRET IC50): 100 to 1000 nM

N#C[C@@H]1C[C@@]2(CN1C(=O)[C@H](CC1CCC1)NC(=O)OCc1ccccc1)C(=O)Nc1ccccc12 [Compound 2]
IC50 (read-out: FRET IC50): < 100 nM

CC(C)(C)[C@H](NC(=O)OCc1ccccc1)C(=O)N1C[C@]2(C[C@H]1C#N)C(=O)Nc1ccccc12 [Compound 3]
IC50 (read-out: FRET IC50): > 1000 nM

N#C[C@@H]1C[C@@]2(CN1C(=O)[C@H](CC1CC1)NC(=O)OCc1ccccc1)C(=O)Nc1ccccc12 [Compound 4]
IC50 (read-out: FRET IC50): < 100 nM

CC(C)(C)C[C@H](NC(=O)OCc1ccccc1)C(=O)N1C[C@]2(C[C@H]1C#N)C(=O)Nc1ccccc12 [Compound 5]
IC50 (read-out: FRET IC50): < 100 nM

CC(OC(C)(C)C)[C@H](NC(=O)OCc1ccccc1)C(=O)N1C[C@]2(C[C@H]1C#N)C(=O)Nc1ccccc12 (stereo partly shown) [Compound 6]
IC50: > 1000 nM

CC(C)(F)C[C@H](NC(=O)OCc1ccccc1)C(=O)N1C[C@]2(C[C@H]1C#N)C(=O)Nc1ccccc12 [Compound 7]
IC50 (read-out: FRET IC50): < 100 nM

CC(C)C[C@H](NC(=O)OCC1(c2ccccc2)CC1)C(=O)N1C[C@]2(C[C@H]1C#N)C(=O)Nc1ccccc12 [Compound 8]
IC50 (read-out: FRET IC50): < 100 nM

CC(C)C[C@H](NC(=O)OC(C)(C)c1cccc(Cl)c1)C(=O)N1C[C@]2(C[C@H]1C#N)C(=O)Nc1ccccc12 [Compound 9]
IC50 (read-out: FRET IC50): 100 to 1000 nM

CC(C)(C)OC[C@H](NC(=O)OCc1ccccc1)C(=O)N1C[C@]2(C[C@H]1C#N)C(=O)Nc1ccccc12 [Compound 10]
IC50 (read-out: FRET IC50): 100 to 1000 nM

COc1cccc2[nH]c(C(=O)N[C@@H](CC(C)C)C(=O)N3C[C@]4(C[C@H]3C#N)C(=O)Nc3ccccc34)cc12 [Compound 11]
IC50 (read-out: FRET IC50): < 100 nM

COc1cccc2[nH]c(C(=O)N[C@H](CC(C)C)C(=O)N3C[C@]4(C[C@H]3C#N)C(=O)Nc3ccccc34)cc12 [Compound 12]
IC50 (read-out: FRET IC50): > 1000 nM

COc1cccc2[nH]c(C(=O)N[C@@H](CC3CCCCC3)C(=O)N3C[C@]4(C[C@H]3C#N)C(=O)Nc3ccccc34)cc12 [Compound 13]
IC50 (read-out: FRET IC50): < 100 nM

COc1cccc2[nH]c(C(=O)N[C@H](CC3CCCCC3)C(=O)N3C[C@]4(C[C@H]3C#N)C(=O)Nc3ccccc34)cc12 [Compound 14]
IC50 (read-out: FRET IC50): 100 to 1000 nM

COc1cccc2[nH]c(C(=O)N[C@@H](CC(C)(C)C)C(=O)N3C[C@]4(C[C@H]3C#N)C(=O)Nc3ccccc34)cc12 [Compound 15]
IC50 (read-out: FRET IC50): < 100 nM

COc1cccc2[nH]c(C(=O)N[C@H](CC(C)(C)C)C(=O)N3C[C@]4(C[C@H]3C#N)C(=O)Nc3ccccc34)cc12 [Compound 16]
IC50 (read-out: FRET IC50): 100 to 1000 nM

COc1cccc2[nH]c(C(=O)N[C@@H](CC3CCC3)C(=O)N3C[C@]4(C[C@H]3C#N)C(=O)Nc3ccccc34)cc12 [Compound 17]
IC50 (read-out: FRET IC50): < 100 nM

CC(C)(C)[C@H](NC(=O)c1cc2c(F)cccc2[nH]1)C(=O)N1C[C@]2(C[C@H]1C#N)C(=O)Nc1ccccc12 [Compound 18]
IC50 (read-out: FRET IC50): > 1000 nM

COc1cccc2[nH]c(C(=O)N[C@@H](CC3CC3)C(=O)N3C[C@]4(C[C@H]3C#N)C(=O)Nc3ccccc34)cc12 [Compound 19]
IC50 (read-out: FRET IC50): < 100 nM

CC(C)(C)C[C@H](NC(=O)c1cc2c(F)c(F)ccc2[nH]1)C(=O)N1C[C@]2(C[C@H]1C#N)C(=O)Nc1ccccc12 [Compound 20]
IC50 (read-out: FRET IC50): < 100 nM

COc1cccc2[nH]c(C(=O)N[C@H](C(=O)N3C[C@]4(C[C@H]3C#N)C(=O)Nc3ccccc34)C(C)OC(C)(C)C)cc12 (stereo partly shown) [Compound 22]
IC50: 100 to 1000 nM

COc1cccc2[nH]c(C(=O)N[C@@H](CC(C)C)C(=O)N3C[C@]4(C[C@H]3C=O)C(=O)Nc3ccccc34)cc12 [Compound 23]
IC50 (read-out: FRET IC50): < 100 nM

CC(C)C[C@H](NC(=O)c1cc2c(F)cccc2[nH]1)C(=O)N1C[C@]2(C[C@H]1C=O)C(=O)Nc1ccccc12 [Compound 25]
IC50 (read-out: FRET IC50): < 100 nM

COc1cc(C#N)cc2[nH]c(C(=O)N[C@@H](CC(C)C)C(=O)N3C[C@]4(C[C@H]3C#N)C(=O)Nc3ccccc34)cc12 [Compound 26]
IC50 (recombinant SARS-CoV-2 3CL-protease 10 nM, 30 min preincubation, run in duplicate, read-out: FRET IC50): 100 to 1000 nM

CC(C)C[C@H](NC(=O)c1cc2c(F)cccc2[nH]1)C(=O)N1C[C@]2(C[C@H]1C#N)C(=O)Nc1ccccc12 [Compound 27]
IC50 (read-out: FRET IC50): < 100 nM
